Assay results published in patent US20040102423A1, “Spironolactone and angiotensin II antagonist combination therapy for treatment of congestive heart failure” (G.D. Searle & Co., priority 1995, published 2004).

Key:
pressor response to AII = assay: Assay C: In vivo intragastric pressor assay response for AII antagonists; parameters: species or system Sprague-Dawley rats; conditions: in vivo pressor response; for inhibition in vivo at 100 mg/kg / inhibition in vivo at 30 mg/kg / inhibition in vivo at 10 mg/kg / inhibition in vivo at 3 mg/kg: Rattus norvegicus; for inhibition in vivo at 30 mg/kg: read-out: Assay C Inhibition
rabbit aortic rings = assay: Assay B: In vitro vascular smooth muscle response for AII (antagonist activity, pA2); assay type: cell-based; conditions: Oryctolagus cuniculus, two values in a cell = two determinations
In short: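 Endothelium-denuded thoracic aortic rings from male New Zealand white rabbits, in oxygenated Krebs at 37° C. under ~1 g tension, gave isometric AII contraction curves (3×10^−10 to 1×10^−5 M).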

[1] = target: angiotensin II AT1 receptor; assay: Assay A: Angiotensin II binding activity, rat uterine membrane preparation, 125I-AII displacement
[2] = intraduodenal, 100 mg/kg intraduodenally
[3] = intraduodenal, 30 mg/kg intraduodenally
[4] = intraduodenal, 3 mg/kg intraduodenally

IC50 [1] [nM] | SMILES | Kb (rabbit aortic rings) [nM] | inhibition in vivo at 3 mg/kg (pressor response to AII; po, 3 mg/kg intragastrically) [%] | Assay C Duration (pressor response to AII; 3 mg/kg intragastrically) [min] | also measured
78000 | CCCCc1nc(Cl)n(Cc2ccc(-c3ccccc3-c3nnn[nH]3)cc2)n1 [Compound 20] | 1290 |  |  | inhibition in vivo at 100 mg/kg (pressor response to AII; [2]): 10%; Assay C Duration (pressor response to AII; 100 mg/kg intraduodenally): 45 min
3.2 | CCCCc1nc(CCC)n(Cc2ccc(-c3ccccc3-c3nnn[nH]3)cc2)n1 [Compound 26] | 0.148 |  |  | inhibition in vivo at 10 mg/kg (pressor response to AII; po, 10 mg/kg intragastrically): 50%; Assay C Duration (pressor response to AII; 10 mg/kg intragastrically): >180 min
22 | CCCCc1ncn(Cc2ccc(-c3ccccc3C(=O)O)cc2)n1 [Compound 30] | 18.6 |  |  | inhibition in vivo at 30 mg/kg (pressor response to AII; [3]): 50%; Assay C Duration (pressor response to AII; 30 mg/kg intraduodenally): >180 min
720 | CCCCc1nn(CC(OCc2ccccc2)c2ccccc2)c(=O)n1Cc1ccc(-c2ccccc2-c2nn[nH]n2)cc1 (stereo not shown) [Compound 108] | 5010 |  |  | inhibition in vivo at 100 mg/kg (pressor response to AII; [2]): 45%; Assay C Duration (pressor response to AII; 100 mg/kg intraduodenally): 90 min
250 | CCCCc1nn(CC(O)c2cc(OC)ccc2OC)c(=O)n1Cc1ccc(-c2ccccc2-c2nn[nH]n2)cc1 (stereo not shown) [Compound 109] | 50.1 |  |  | inhibition in vivo at 30 mg/kg (pressor response to AII; [3]): 50%; Assay C Duration (pressor response to AII; 30 mg/kg intraduodenally): 30 min
45 | CCCCc1nn(CCCCC(=O)OC)c(=O)n1Cc1ccc(-c2ccccc2-c2nn[nH]n2)cc1 [Compound 111] | 1 |  |  | inhibition in vivo at 30 mg/kg (pressor response to AII; [3]): 87%; Assay C Duration (pressor response to AII; 30 mg/kg intraduodenally): 160 min
12 | CCCCc1nn(C(C)(C)C(=O)c2ccccc2)c(=O)n1Cc1ccc(-c2ccccc2-c2nn[nH]n2)cc1 [Compound 113] | 3.98 |  |  | inhibition in vivo at 10 mg/kg (pressor response to AII; po, 10 mg/kg intragastrically): 60%; Assay C Duration (pressor response to AII; 10 mg/kg intragastrically): 180 min
11 | CCCCc1nn(CC2CC2)c(=O)n1Cc1ccc(-c2ccccc2-c2nn[nH]n2)cc1 [Compound 115] | 6.31 | 40 | >240 | 
37 | CCCCc1nn(CC(OCC(=O)OCC)c2ccccc2)c(=O)n1Cc1ccc(-c2ccccc2-c2nn[nH]n2)cc1 (stereo not shown) [Compound 118] | 0.617 |  |  | inhibition in vivo at 10 mg/kg (pressor response to AII; intraduodenal, 10 mg/kg intraduodenally): 70%; Assay C Duration (pressor response to AII; 10 mg/kg intraduodenally): 120 min
16 | CCCCc1nc2cnncc2n1Cc1ccc(-c2ccccc2C(=O)O)cc1 [Compound 119] | 0.617 | 20 | 60 | 
25 | CCCCc1nc2c(O)nnc(O)c2n1Cc1ccc(-c2ccccc2C(=O)O)cc1 [Compound 120] | 0.891 |  |  | inhibition in vivo at 10 mg/kg (pressor response to AII; po, 10 mg/kg intragastrically): 80%; Assay C Duration (pressor response to AII; 10 mg/kg intragastrically): 240 min
5.8 | CCCCc1cn(C2CCCCC2)c(=O)n1Cc1ccc(-c2ccccc2-c2nnn[nH]2)cc1 [Compound 147] | 2510 |  |  | inhibition in vivo at 3 mg/kg (pressor response to AII; [4]): 74%; Assay C Duration (pressor response to AII; 3 mg/kg intraduodenally): 5 to 10 min
0.87 | CCCCc1c(C)n(CCCC)c(=O)n1Cc1ccc(-c2ccccc2-c2nnn[nH]2)cc1 [Compound 148] | 1580 |  |  | inhibition in vivo at 3 mg/kg (pressor response to AII; [4]): 92%; Assay C Duration (pressor response to AII; 3 mg/kg intraduodenally): 20 to 30 min
150 | CCCCc1nc(CCCC)n(Cc2ccc(-n3c(Br)ccc3-c3nnn[nH]3)cc2)n1 [Compound 152] | 34.7 | 10 | 140 | 
54 | CCCCc1nc(Cl)c(Cl)n1Cc1ccc(-n2cccc2C(=O)O)cc1 [Compound 158] | 5.89 | 30 | >180 | 
150 | CCCCn1nc(-c2ccccc2Cl)nc1Cc1ccc(-c2ccccc2-c2nnn[nH]2)nc1 [Compound 169] | 16.6 | 15 | 180 | 
9.8 | CCCn1nc(C(C)(F)F)nc1Cc1ccc(-c2ccccc2-c2nnn[nH]2)nc1 [Compound 176] | 20.4 | 10 | 150 | 
6.5 | CCCn1nc(C(OC)OC)nc1Cc1ccc(-c2ccccc2-c2nnn[nH]2)nc1 [Compound 185] | 1.51 | 50 | >180 | 
10 | CCCCn1nc(C=O)nc1Cc1ccc(-c2ccccc2-c2nnn[nH]2)nc1 [Compound 190] | 13.5 | 10 | 180 | 
81 | CCCCn1nc(C2OCCCO2)nc1Cc1ccc(-c2ccccc2-c2nnn[nH]2)nc1 [Compound 191] | 17.8 | 10 | 180 | 

IC50 [1] [nM] | SMILES | Kb (rabbit aortic rings) [nM] | inhibition in vivo at 3 mg/kg (pressor response to AII; po, 3 mg/kg intragastrically) [%] | Assay C Duration (pressor response to AII; 3 mg/kg intragastrically) [min] | also measured
7.6 | CCCn1cc(CC(C)C)n(Cc2ccc(-c3ccccc3-c3nnn[nH]3)nc2)c1=O [Compound 198] | 1.74 | 35 | >180 | 
10 | CCCCn1cc(CC(C)C)n(Cc2ccc(-c3ccccc3-c3nnn[nH]3)nc2)c1=O [Compound 199] | 1.62 | 60 | >180 | 
17 | CCCCCc1cn(CCCC)c(=O)n1Cc1ccc(-c2ccccc2-c2nnn[nH]2)nc1 [Compound 201] | 1.66 | 10 | 180 | 
12 | CCCCn1cc(C2CCCCC2)n(Cc2ccc(-c3ccccc3-c3nnn[nH]3)nc2)c1=O [Compound 202] | 1.62 | 65 | >180 | 
9.2 | CCCCn1cc(C2CCCC2)n(Cc2ccc(-c3ccccc3-c3nnn[nH]3)nc2)c1=O [Compound 203] | 3.72 | 50 | >180 | 
20 | CCCCc1cn(C)c(=O)n1Cc1ccc(-c2ccccc2-c2nnn[nH]2)nc1 [Compound 205] | 0.724 | 40 | >180 | 
5.4 | CCCCc1cn(CC)c(=O)n1Cc1ccc(-c2ccccc2-c2nnn[nH]2)nc1 [Compound 206] | 1.78 | 30 | >180 | 
5 | CCCCc1cn(CCC(C)C)c(=O)n1Cc1ccc(-c2ccccc2-c2nnn[nH]2)nc1 [Compound 209] | 0.389 | 25 | >180 | 
3.6 | CCCCCn1cc(CCCC)n(Cc2ccc(-c3ccccc3-c3nnn[nH]3)nc2)c1=O [Compound 210] | 4.37 | 15 | 180 | 
18 | CCCCc1cn(C(C)C)c(=O)n1Cc1ccc(-c2ccccc2-c2nnn[nH]2)nc1 [Compound 211] | 1.82 | 35 | >180 | 
5.4 | CCCCc1cn(C2CCCCC2)c(=O)n1Cc1ccc(-c2ccccc2-c2nnn[nH]2)nc1 [Compound 216] | 1.58 | 50 | >180 | 
4.4 | CCCCc1cn(-c2c(Cl)cccc2Cl)c(=O)n1Cc1ccc(-c2ccccc2-c2nnn[nH]2)nc1 [Compound 232] | 2.57 | 70 | >180 | 
6.8 | CCCCc1cn(-c2ccccc2CC)c(=O)n1Cc1ccc(-c2ccccc2-c2nnn[nH]2)nc1 [Compound 239] | 13.2 | 20 | >180 | 
9.4 | CCCCc1cn([C@H]2[C@H](C)CCC[C@@H]2C)c(=O)n1Cc1ccc(-c2ccccc2-c2nnn[nH]2)nc1 [Compound 247] | 5.5 | 20 | 180 | 
20 | CCCCc1cn(C2CCCCC2(C)C)c(=O)n1Cc1ccc(-c2ccccc2-c2nnn[nH]2)nc1 (stereo not shown) [Compound 248] | 20.9 | 10 |  | 
12 | CCCCc1nc(CCCC)n(Cc2ccc(-c3cnccc3-c3nnn[nH]3)cc2)n1 [Compound 255] | 24.5 | 20 | >180 | 
9.8 | CCCCc1nc(-c2ccccc2C)n(Cc2ccc(-c3ccccc3-c3nnn[nH]3)nc2)n1 [Compound 273] | 2.95 | 25 | >180 | 
13 | CCCCc1nc(-c2ccccc2C(C)C)nn1Cc1ccc(-c2ccccc2-c2nnn[nH]2)nc1 [Compound 274] | 0.871 | 35 | >180 | 
6.3 | CCCCc1nc(-c2ccccc2C(C)C)n(Cc2ccc(-c3ccccc3-c3nnn[nH]3)nc2)n1 [Compound 275] | 0.851 | 40 | >180 | 

SMILES | IC50 [1] [nM] | Kb (rabbit aortic rings) [nM] | inhibition in vivo at 3 mg/kg (pressor response to AII; po, 3 mg/kg intragastrically) [%] | Assay C Duration (pressor response to AII; 3 mg/kg intragastrically) [min] | also measured
C[C@]12C=CC(=O)C=C1[C@@H]1CC1[C@H]1[C@@H]3CC[C@@]4(CCC(=O)O4)[C@@]3(C)CC3O[C@]312 (stereo partly shown) [Compound 6] | 1300 | 282 |  |  | inhibition in vivo at 100 mg/kg (pressor response to AII; [2]): 90%; Assay C Duration (pressor response to AII; 100 mg/kg intraduodenally): 120 min
COC(=O)CC[C@]1(O)CC[C@H]2[C@@H]3C4CC4C4=CC(=O)CC[C@]4(C)[C@]34OC4C[C@@]21C (stereo partly shown) [Compound 7] | 84 | 9.77 |  |  | inhibition in vivo at 30 mg/kg (pressor response to AII; [3]): 90%; Assay C Duration (pressor response to AII; 30 mg/kg intraduodenally): 130 min
